Columns and labels:
Mm (BAA-535) = experiment: BDQ potentiation MIC99 microbroth assay, Mm; assay type: cell-based, Mycobacterium marinum; conditions: for Fold ∆ of BDQ MIC, Mm: 6-azasteroid fixed at 20 μM, relative to BDQ MIC99 without azasteroid
Mtb (CDC1551) = experiment: BDQ potentiation MIC99 microbroth assay, Mtb; assay type: cell-based, Mycobacterium tuberculosis; conditions: 6-azasteroid fixed at 20 μM; relative to BDQ MIC99 without azasteroid
THP-1 cells = experiment: Cytotoxicity assay (Alamar Blue), THP-1; assay type: cell-based; conditions: 72 h, read-out: Mammalian Cell IC50, THP1
Mtb = experiment: MIC of 6-azasteroid alone, Mtb; assay type: cell-based, Mycobacterium tuberculosis; conditions: (MIC99 reported as micromolar)
HepG2 cells = experiment: Cytotoxicity assay (Alamar Blue), HepG2; assay type: cell-based, human; conditions: 72 h, read-out: Mammalian Cell IC50, HepG2
Mm = experiment: MIC of 6-azasteroid alone, Mm; assay type: cell-based, Mycobacterium marinum; conditions: (micromolar)
[1] = target: T1, recombinant Mtb 3β-Hsd (Rv1106c) (Mycobacterium tuberculosis, UniProt P9WQP7); assay type: biochemical; conditions: 50 μM 6-azasteroid
T1 construct: made in house
T1 sequence (P9WQP7 whole entry): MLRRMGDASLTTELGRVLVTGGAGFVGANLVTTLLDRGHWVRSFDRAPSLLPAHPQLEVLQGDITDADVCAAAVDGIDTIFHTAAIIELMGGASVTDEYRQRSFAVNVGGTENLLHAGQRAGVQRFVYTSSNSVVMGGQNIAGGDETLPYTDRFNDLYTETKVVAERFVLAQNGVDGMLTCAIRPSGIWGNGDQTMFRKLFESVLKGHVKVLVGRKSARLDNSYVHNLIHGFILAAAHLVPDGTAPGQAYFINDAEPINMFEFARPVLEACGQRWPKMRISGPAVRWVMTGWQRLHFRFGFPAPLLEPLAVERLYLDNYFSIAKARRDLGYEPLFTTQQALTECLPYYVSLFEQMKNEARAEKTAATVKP

`COc1nc2ccc(Br)cc2cc1[C@@H](c1ccccc1)[C@@](O)(CCN(C)C)c1cccc2ccccc12` [bedaquiline, reference compound] was tested, and the MIC (Mm (BAA-535); Mycobacterium marinum, BAA535, read-out: Mm bedaquiline minimal inhibitory concentration, alone) was 0.085 µM.

In the case of `CC(C)(C)c1ccc(C(C)(C)C)c(NC(=O)C2CCC3C4CNC5=CC(=O)CC[C@]5(C)C4CC[C@]23C)c1` (stereo partly shown) [compound 1], the “Fold ∆ of BDQ MIC, Mtb” value (Mtb (CDC1551)) is reported as 16 fold, the IC50 (THP-1 cells) is reported as 17.7 µM and the “Mtb MIC Alone” value (Mtb) is reported as 40 µM.

In the case of `CC(C)(C)c1ccc(C(C)(C)C)c(NC(=O)C2CCC3C4CNC5CC(=O)CC[C@]5(C)C4CC[C@]23C)c1` (stereo partly shown) [compound 3], the IC50 (HepG2 cells) is reported as 16.9 µM, the IC50 (THP-1 cells) is reported as 14.2 µM and the “Mtb MIC Alone” value (Mtb) is reported as 10 µM.

With `CCCN1CC2C3CCC(C(=O)Nc4cc(C(C)(C)C)ccc4C(C)(C)C)[C@@]3(C)CCC2[C@@]2(C)CCC(=O)CC12` (stereo partly shown) [compound 4] the IC50 (THP-1 cells) was 73 µM and the “Mtb MIC Alone” value (Mtb) was 20 µM.

With `CCCN1CC2C3CCC(C(=O)Nc4cc(C(F)(F)F)ccc4C(C)(C)C)[C@@]3(C)CCC2[C@@]2(C)CCC(=O)C=C12` (stereo partly shown) [compound 6] the IC50 (HepG2 cells) was 71 µM, the “Fold ∆ of BDQ MIC, Mm” value (Mm (BAA-535)) was 3 fold and the “MIC Alone (Mm)” value (Mm) was over 20 µM.

For `C[C@]12CCC3C(CN(CCCF)C4=CC(=O)CC[C@@]43C)C1CCC2C(=O)Nc1cc(C(F)(F)F)ccc1C(F)(F)F` (stereo partly shown) [compound 8], the IC50 (HepG2 cells) was over 100 µM, the “Fold ∆ of BDQ MIC, Mm” value (Mm (BAA-535)) was 7 fold and the “MIC Alone (Mm)” value (Mm) was over 20 µM.

For `C[C@]12CCC3C(CN(CCC(F)(F)F)C4=CC(=O)CC[C@@]43C)C1CCC2C(=O)Nc1cc(C(F)(F)F)ccc1C(F)(F)F` (stereo partly shown) [compound 9], the IC50 (HepG2 cells) was over 100 µM, the “Fold ∆ of BDQ MIC, Mm” value (Mm (BAA-535)) was 4 fold and the “MIC Alone (Mm)” value (Mm) was over 20 µM.

In the case of `C[C@]12CCC(=O)CC1NCC1C2CC[C@]2(C)C(C(=O)NC34CC5CC(CC(C5)C3)C4)CCC12` (stereo partly shown) [compound 11], the IC50 (HepG2 cells) is reported as 89.3 µM, the “Fold ∆ of BDQ MIC, Mm” value (Mm (BAA-535)) is reported as 6 fold and the “Mtb MIC Alone” value (Mtb) is reported as over 80 µM.

With `C[C@]12CCC3C(CNC4=CC(=O)CC[C@@]43C)C1CCC2C(=O)NC(c1ccc(F)cc1)c1ccc(F)cc1` (stereo partly shown) [compound 12] the IC50 (HepG2 cells) was 31.4 µM, the “Fold ∆ of BDQ MIC, Mtb” value (Mtb (CDC1551)) was 32 fold and the IC50 (THP-1 cells) was 24.2 µM. The “Fold ∆ of BDQ MIC, Mm” value (Mm (BAA-535)) was 7 fold and the “Mtb MIC Alone” value (Mtb) was 31 µM.

In the case of `CCCN1CC2C3CCC(C(=O)NC(c4ccc(F)cc4)c4ccc(C(F)(F)F)cc4)[C@@]3(C)CCC2[C@@]2(C)CCC(=O)C=C12` (stereo partly shown) [compound 16], the “Fold ∆ of BDQ MIC, Mtb” value (Mtb (CDC1551)) is reported as 64 fold, the “Mtb MIC Alone” value (Mtb) is reported as over 20 µM and the “inhibition of 3β-Hsd activity” value [1] is reported as “greater than 50%”.

For `C[C@]12CCC(=O)CC1NCC1C2CC[C@]2(C)C(C(=O)NC(c3ccc(F)cc3)c3ccc(C(F)(F)F)cc3)CCC12` (stereo partly shown) [compound 17], the IC50 (HepG2 cells) was 10.1 µM, the IC50 (THP-1 cells) was 15.6 µM and the “Mtb MIC Alone” value (Mtb) was 20 µM.

In the case of `C[C@]12CCC3C(CNC4=CC(=O)CC[C@@]43C)C1CCC2C(=O)NC(c1ccc(OC(F)F)cc1)c1ccc(OC(F)F)cc1` (stereo partly shown) [compound 22], the “Fold ∆ of BDQ MIC, Mtb” value (Mtb (CDC1551)) is reported as over 32 fold, the IC50 (THP-1 cells) is reported as 25.7 µM and the “Mtb MIC Alone” value (Mtb) is reported as over 20 µM.

With `C[C@]12CCC(=O)CC1NCC1C2CC[C@]2(C)C(C(=O)NC(c3ccc(OC(F)F)cc3)c3ccc(OC(F)F)cc3)CCC12` (stereo partly shown) [compound 23] the IC50 (THP-1 cells) was 3.3 µM and the “Mtb MIC Alone” value (Mtb) was 15 µM.

With `CCCN1CC2C3CCC(C(=O)NC(c4ccc(OC(F)F)cc4)c4ccc(OC(F)F)cc4)[C@@]3(C)CCC2[C@@]2(C)CCC(=O)CC12` (stereo partly shown) [compound 24] the IC50 (THP-1 cells) was over 100 µM, the “Fold ∆ of BDQ MIC, Mm” value (Mm (BAA-535)) was 25.5 fold and the “Mtb MIC Alone” value (Mtb) was 60 µM.

In the case of `CCCN1CC2C3CCC(C(=O)NC(c4ccc(C(F)(F)F)cc4)c4ccc(C(F)(F)F)cc4)[C@@]3(C)CCC2[C@@]2(C)CCC(=O)CC12` (stereo partly shown) [compound 27], the “Fold ∆ of BDQ MIC, Mtb” value (Mtb (CDC1551)) is reported as 2 fold, the IC50 (THP-1 cells) is reported as over 100 µM and the “Mtb MIC Alone” value (Mtb) is reported as 20 µM.

For `C[C@]12CCC3C(CNC4=CC(=O)CC[C@@]43C)C1CCC2C(=O)NC(c1ccc(OC(F)(F)F)cc1)c1ccc(OC(F)(F)F)cc1` (stereo partly shown) [compound 28], the “Fold ∆ of BDQ MIC, Mtb” value (Mtb (CDC1551)) was over 32 fold, the IC50 (THP-1 cells) was 12.8 µM and the “Mtb MIC Alone” value (Mtb) was over 20 µM.

In the case of `C[C@]12CCC(=O)CC1NCC1C2CC[C@]2(C)C(C(=O)NC(c3ccc(OC(F)(F)F)cc3)c3ccc(OC(F)(F)F)cc3)CCC12` (stereo partly shown) [compound 29], the IC50 (THP-1 cells) is reported as 4.5 µM and the “Mtb MIC Alone” value (Mtb) is reported as 5 µM.

In the case of `CC(=O)N1CC2C3CCC(C(=O)NC(c4ccc(OC(F)(F)F)cc4)c4ccc(OC(F)(F)F)cc4)[C@@]3(C)CCC2[C@@]2(C)CCC(=O)CC12` (stereo partly shown) [compound 31], the IC50 (HepG2 cells) is reported as over 100 µM, the “Fold ∆ of BDQ MIC, Mtb” value (Mtb (CDC1551)) is reported as 1 fold and the “Fold ∆ of BDQ MIC, Mm” value (Mm (BAA-535)) is reported as 3.5 fold. The “Mtb MIC Alone” value (Mtb) was over 80 µM.

`CCCN1CC2C3CCC(C(=O)NC(c4ccc(OC(F)(F)F)cc4)c4ccc(OC(F)(F)F)cc4)[C@@]3(C)CCC2[C@@]2(C)CCC(=O)C=C12` (stereo partly shown) [compound 36] was tested, and the IC50 (THP-1 cells) was over 100 µM, the “Fold ∆ of BDQ MIC, Mm” value (Mm (BAA-535)) was 1.6 fold and the “Mtb MIC Alone” value (Mtb) was over 40 µM.

For `CN(C)CCN1CC2C3CCC(C(=O)NC(c4ccc(OC(F)(F)F)cc4)c4ccc(OC(F)(F)F)cc4)[C@@]3(C)CCC2[C@@]2(C)CCC(=O)CC12` (stereo partly shown) [compound 37], the IC50 (THP-1 cells) was 4.1 µM and the “Mtb MIC Alone” value (Mtb) was 5 µM.

`C[C@]12CCC3C(CN(CC4CC4)C4CC(=O)CC[C@]34C)C1CCC2C(=O)NC(c1ccc(OC(F)(F)F)cc1)c1ccc(OC(F)(F)F)cc1` (stereo partly shown) [compound 38] was tested, and the IC50 (THP-1 cells) was 10 µM and the “Mtb MIC Alone” value (Mtb) was 80 µM.

For `C[C@]12CCC3C(CN(CCCF)C4CC(=O)CC[C@]34C)C1CCC2C(=O)NC(c1ccc(OC(F)(F)F)cc1)c1ccc(OC(F)(F)F)cc1` (stereo partly shown) [compound 41], the IC50 (HepG2 cells) was over 100 µM, the “Fold ∆ of BDQ MIC, Mm” value (Mm (BAA-535)) was 5 fold and the “MIC Alone (Mm)” value (Mm) was over 20 µM.

For `C[C@]12CCC3C(CN(CCC(F)(F)F)C4CC(=O)CC[C@]34C)C1CCC2C(=O)NC(c1ccc(OC(F)(F)F)cc1)c1ccc(OC(F)(F)F)cc1` (stereo partly shown) [compound 42], the IC50 (HepG2 cells) was over 100 µM, the “Fold ∆ of BDQ MIC, Mm” value (Mm (BAA-535)) was 1 fold and the “MIC Alone (Mm)” value (Mm) was over 20 µM.

`C[C@]12CCC3C(CNC4=CC(=O)CC[C@@]43C)C1CCC2C(=O)Nc1ccc(C(=O)c2ccccc2)cc1` (stereo partly shown) [compound 43] was tested, and the IC50 (HepG2 cells) was over 100 µM, the “Fold ∆ of BDQ MIC, Mtb” value (Mtb (CDC1551)) was 8 fold and the “Fold ∆ of BDQ MIC, Mm” value (Mm (BAA-535)) was 2 fold. For the same molecule, the “MIC Alone (Mm)” value (Mm) was over 20 µM.

For `C#CCCC(=O)Nc1ccc(C(=O)c2ccc(NC(=O)C3CCC4C5CNC6=CC(=O)CC[C@]6(C)C5CC[C@]34C)cc2)cc1` (stereo partly drawn) [compound 44, 17β-[N-[4-(4-Aminobenzoyl)phenyl]pent-4-ynamide]-6-azaandrost-4-en-3-one], the “BDQ potentiation activity in Mm” value (Mm (BAA-535); photoaffinity probes) was “showed BDQ potentiation activity”.
